# Measured values published in patent publication US5288709A, “Erythromycin derivatives” (priority 1991, dated 1994).
# Key:
# [1] = tested on: Staphylococcus aureus CMX 553; test: In-vitro antimicrobial activity primary screen (agar dilution MIC); type: cell-based; details: Staphylococcus aureus, CMX553, 24 h, BHI agar, 20-24 h, read-out: MIC
# Summary of the method: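 Agar dilution in Brain Heart Infusion agar with twelve successive compound dilutions; plates inoculated with 1:100 diluted cultures by replicator and incubated 20-24 h at 35-37 °C. MIC is the lowest concentration giving no growth, slight haze or sparse isolated colonies versus compound-free control; erythromycin A plate run as reference.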
# [2] = Pharmacokinetic evaluation in dogs after a 10 mg/kg dose; details: dog, plasma; for half-life: t1/2 (biological half life); for bioavailability: % ABS (percent absorbance), from AUC (absolute bioavailability); for Cmax: Cmax (maximum concentration in blood); for Tmax: Tmax (time to achieve maximum concentration in blood)
# Procedure: Selected compounds of the present invention were formulated as solutions in dilute lactobionic acid at a concentration of 10 or 20 mg/ml. Groups of two or three dogs were given a 10 mg macrolide/kg intravenous bolus or oral dose (by gavage). Plasma samples, obtained at selected time points from 15 minutes to 32 hours after dosing, were assayed using reverse phase HPLC with electrochemical detection (parent drug) and microbiological assay (total microbiological activity). Plasma concentration time curves were subjected to multi exponential curve fitting to determine terminal elimination half life values. Area under the curve (AUC) values, calculated by the trapezoidal method, were used to calculate absolute bioavailability.
# Escherichia coli JUHL = test: In-vitro antimicrobial activity primary screen (agar dilution MIC); type: cell-based; details: Escherichia coli JUHL; BHI agar, 20-24 h; read-out: MIC
# Summary of the method: (§1)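 Minimum inhibitory concentrations come from twelve-step agar dilution in BHI medium. Strains, diluted 1:100 or 1:10 if slow-growing, were replicator-plated and incubated 20-24 h, 35-37° C; haze or sparse colonies counted as inhibition.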
# [3] = tested on: Micrococcus luteus ATCC 9341; test: as above; type: cell-based; details: ATCC9341, BHI agar, 20-24 h, read-out: MIC
# Summary of the method: as §1
# [4] = tested on: Enterobacter aerogenes ATCC 13048; test: as above; type: cell-based; details: Klebsiella aerogenes, ATCC13048; Enterobacter aerogenes ATCC 13048; BHI agar, 20-24 h; read-out: MIC
# Summary of the method: as §1
# [5] = tested on: Pseudomonas aeruginosa A5007; test: as above; type: cell-based; details: Pseudomonas aeruginosa A5007; BHI agar, 20-24 h; read-out: MIC
# Summary of the method: as §1
# [6] = tested on: Pseudomonas aeruginosa BMH10; test: as above; type: cell-based; details: Pseudomonas aeruginosa, BMH10, 24 h, BHI agar, 20-24 h
# Summary of the method: as §1
# Pseudomonas cepacia 2961 = test: as above; type: cell-based; details: Burkholderia cepacia, BHI agar, 20-24 h, read-out: MIC
# Summary of the method: as §1
# [7] = tested on: Klebsiella pneumoniae ATCC 8045; test: as above; type: cell-based; details: ATCC8045; Klebsiella pneumoniae ATCC 8045; BHI agar, 20-24 h; read-out: MIC
# Summary of the method: as §1
# Escherichia coli SS = test: as above; type: cell-based; details: BHI agar, 20-24 h, read-out: MIC
# Summary of the method: as §1
# Staphylococcus aureus 45 = test: as above; type: cell-based; details: BHI agar, 20-24 h, read-out: MIC
# Summary of the method: as §1
# [8] = tested on: Staphylococcus aureus A5177; test: as above; type: cell-based; details: Staphylococcus aureus, A5177, 24 h
# Summary of the method: as §1
# [9] = tested on: Streptococcus pyrogenes 2548 INDUC; test: as above; type: cell-based; details: BHI agar, 20-24 h, read-out: MIC
# Summary of the method: as §1
# [10] = tested on: Streptococcus pyrogenes EES61; test: as above; type: cell-based; details: BHI agar, 20-24 h, read-out: MIC
# Summary of the method: as §1
# [11] = tested on: Streptococcus agalactiae CMX 508; test: as above; type: cell-based; details: CMX508, BHI agar, 20-24 h, read-out: MIC
# Summary of the method: as §1
# [12] = tested on: Micrococcus luteus ATCC 4698; test: as above; type: cell-based; details: ATCC4698, BHI agar, 20-24 h, read-out: MIC
# Summary of the method: as §1
# [13] = tested on: Streptococcus bovis A5169; test: as above; type: cell-based; details: Streptococcus equinus, BHI agar, 20-24 h, read-out: MIC
# Summary of the method: as §1
# [14] = tested on: Enterococcus faecium ATCC 8043; test: as above; type: cell-based; details: ATCC8043; Enterococcus faecium ATCC 8043; BHI agar, 20-24 h; read-out: MIC
# Summary of the method: as §1
# Acinetobacter SP CMX 669 = test: as above; type: cell-based; details: Acinetobacter, SPCMX669, 24 h
# Summary of the method: as §1
# Escherichia coli H560 = test: as above; type: cell-based; details: Escherichia coli H560; BHI agar, 20-24 h; read-out: MIC
# Summary of the method: as §1
# [15] = tested on: Staphylococcus aureus ATCC 6538P; test: as above; type: cell-based; details: Staphylococcus aureus, ATCC6538P, 24 h, BHI agar, 20-24 h
# Summary of the method: as §1
# [16] = tested on: Staphylococcus aureus 642A; test: as above; type: cell-based; details: BHI agar, 20-24 h, read-out: MIC
# Summary of the method: as §1
# [17] = tested on: Pseudomonas aeruginosa K799/61; test: as above; type: cell-based; details: Pseudomonas aeruginosa K799/61; BHI agar, 20-24 h; read-out: MIC
# Summary of the method: as §1
# [18] = tested on: Pseudomonas aeruginosa K799/WT; test: as above; type: cell-based; details: Pseudomonas aeruginosa K799/WT; BHI agar, 20-24 h; read-out: MIC
# Summary of the method: as §1
# Escherichia coli DC-2 = test: as above; type: cell-based; details: DC2; Escherichia coli DC-2; BHI agar, 20-24 h; read-out: MIC
# Summary of the method: as §1
# [19] = tested on: Providencia stuartii CMX 640; test: as above; type: cell-based; details: CMX640; Providencia stuartii CMX 640; BHI agar, 20-24 h; read-out: MIC
# Summary of the method: as §1
# [20] = tested on: Staphylococcus aureus NCTC 10649; test: as above; type: cell-based; details: NCTC10649, BHI agar, 20-24 h, read-out: MIC
# Summary of the method: as §1
# [21] = tested on: Staphylococcus epidermidis 3519; test: as above; type: cell-based; details: BHI agar, 20-24 h, read-out: MIC
# Summary of the method: as §1
# [22] = tested on: Staphylococcus aureus 45 RAR2; test: as above; type: cell-based; details: Staphylococcus aureus, 45RAR2, 24 h, BHI agar, 20-24 h
# Summary of the method: as §1
# [23] = po, oral 10 mg/kg, HPLC (parent drug)
# [24] = po, oral 10 mg/kg, microbiological assay
compound,measurement,setting,value
"CC[C@H]1OC(=O)[C@H](C)[C@@H](O[C@H]2C[C@@](C)(OC)[C@@H](N)[C@H](C)O2)[C@H](C)[C@@H](O[C@@H]2O[C@H](C)C[C@H](N(C)C)[C@H]2O)[C@](C)(O)C[C@@H](C)[C@@H]2O[C@@]1(C)[C@@H](N)[C@H]2C [Example 22, (4""S,9S,11S)-4"",11-Diamino-9-deoxo-4"",11,12-trideoxy-9,12-epoxyerythromycinA]",MIC,[1],0.2 µg/mL
same,half-life,"[2]; iv, IV 10 mg/kg, HPLC (parent drug)",558 min
same,half-life,"[2]; iv, IV 10 mg/kg, microbiological assay",612 min
same,bioavailability,[2]; [23],43%
same,bioavailability,[2]; [24],57%
same,Cmax,[2]; [23],3200 ng/mL
same,Cmax,[2]; [24],3500 ng/mL
same,Tmax,[2]; [23],30 min
same,Tmax,[2]; [24],36 min
same,half-life,[2]; [23],690 min
same,half-life,[2]; [24],588 min
same,MIC,Escherichia coli JUHL,1.56 µg/mL
same,MIC,[3],≤ 5 ng/mL
same,MIC,[4],6.2 µg/mL
same,MIC,[5],> 100 µg/mL
same,MIC,[6],12.5 µg/mL
same,MIC,Pseudomonas cepacia 2961,> 100 µg/mL
same,MIC,[7],1.56 µg/mL
same,MIC,Escherichia coli SS,0.1 µg/mL
same,MIC,Staphylococcus aureus 45,0.1 µg/mL
same,MIC,[8],1.56 µg/mL
same,MIC,[9],1.56 µg/mL
same,MIC,[10],0.01 µg/mL
same,MIC,[11],0.01 µg/mL
same,MIC,[12],0.05 µg/mL
same,MIC,[13],0.01 µg/mL
same,MIC,[14],0.05 µg/mL
same,MIC,Acinetobacter SP CMX 669,0.39 µg/mL
same,MIC,Escherichia coli H560,0.78 µg/mL
same,MIC,[15],0.2 µg/mL
same,MIC,[16],0.2 µg/mL
same,MIC,[17],0.39 µg/mL
same,MIC,[18],100 µg/mL
same,MIC,Escherichia coli DC-2,3.1 µg/mL
same,MIC,[19],> 100 µg/mL
same,MIC,[20],0.2 µg/mL
same,MIC,[21],0.2 µg/mL
same,MIC,[22],0.2 µg/mL
